Results as given in ChEMBL document CHEMBL1201862, “PubChem BioAssay data set” (2004).
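Method: 48-hour compound exposure of cells in 96-well plates, five concentrations, linear interpolation of endpoints. At the GI50, growth is halved.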 The source made the active and inactive calls. Cut-off read from the data, not from the text of the source: active = GI50 up to about 1.1 µM and inactive = higher.

Assays:
Test in all cases: inhibition of tumour cell growth, NCI panel, 48 h
786-0 = system: 786-0
A498 = system: A498
A549 = system: A549
ACHN = system: ACHN
CCRF-CEM = system: CCRF-CEM
COLO 205 = system: COLO 205
HCT-116 = system: HCT-116
HCT-15 = system: HCT-15
KM12 = system: KM12
M14 = system: M14
MDA-MB-435 = system: MDA-MB-435
NCI-H23 = system: NCI-H23
SF-539 = system: SF-539
SK-OV-3 = system: SK-OV-3
SNB-75 = system: SNB-75
SR = system: SR
SW-620 = system: SW-620
TK-10 = system: TK-10
UACC-257 = system: UACC-257
UO-31 = system: UO-31

SMILES | GI50 (786-0) | GI50 (A498) | GI50 (A549) | GI50 (ACHN) | GI50 (CCRF-CEM) | GI50 (COLO 205) | GI50 (HCT-116) | GI50 (HCT-15) [µM] | GI50 (KM12) | GI50 (M14) | GI50 (MDA-MB-435) | GI50 (NCI-H23) | GI50 (SF-539) | GI50 (SK-OV-3) | GI50 (SNB-75) | GI50 (SR) | GI50 (SW-620) | GI50 (TK-10) | GI50 (UACC-257) | GI50 (UO-31)
O=C(O)C(Cl)(c1ccccc1)c1ccccc1 | > 100 µM (inactive) | > 100 µM (inactive) | > 100 µM (inactive) | > 100 µM (inactive) | > 100 µM (inactive) | > 100 µM (inactive) | > 100 µM (inactive) | > 100 | > 100 µM (inactive) | > 100 µM (inactive) | > 100 µM (inactive) | > 100 µM (inactive) | > 100 µM (inactive) | > 100 µM (inactive) | > 100 µM (inactive) | > 100 µM (inactive) | > 100 µM (inactive) | > 100 µM (inactive) | > 100 µM (inactive) | > 100 µM (inactive)
CCOC(=O)c1ccc2c(c1)nc1n2C(c2c(F)cccc2F)SC1 (stereo not drawn) | 23.4 µM (inactive) | > 100 µM (inactive) | 23.6 µM (inactive) | 18.3 µM (inactive) | 33.5 µM (inactive) | 14.2 µM (inactive) | 15.6 µM (inactive) | 23.3 | 17.1 µM (inactive) | 27.9 µM (inactive) | 30.6 µM (inactive) | 17.6 µM (inactive) | 21.4 µM (inactive) | 94.6 µM (inactive) | 62.5 µM (inactive) | 25.6 µM (inactive) | 54.6 µM (inactive) | 80.9 µM (inactive) | 38 µM (inactive) | 29.2 µM (inactive)
CCCCc1cc2c(C)cc(=O)oc2c(O)c1O | 33.9 µM (inactive) | 26.5 µM (inactive) | 33.2 µM (inactive) | 33 µM (inactive) | 21.3 µM (inactive) | 25.8 µM (inactive) | 30.5 µM (inactive) | 26.9 | 25.1 µM (inactive) | 31.6 µM (inactive) | 30.6 µM (inactive) | 34.9 µM (inactive) | 21.8 µM (inactive) | – | 27.1 µM (inactive) | 18 µM (inactive) | 28.2 µM (inactive) | 85.9 µM (inactive) | 20.4 µM (inactive) | 20.3 µM (inactive)
CCN1CCN(c2ccc(Nc3ccnc4ccc5c(nnn5C)c34)cc2)CC1 | 3.86 µM (inactive) | 14.8 µM (inactive) | 7.83 µM (inactive) | 2.99 µM (inactive) | 4.6 µM (inactive) | 2.78 µM (inactive) | 3.44 µM (inactive) | 3.95 | 3.51 µM (inactive) | 10.7 µM (inactive) | 5.46 µM (inactive) | 11.6 µM (inactive) | 2.98 µM (inactive) | 11.4 µM (inactive) | 13.9 µM (inactive) | 2.51 µM (inactive) | 3.93 µM (inactive) | 15.3 µM (inactive) | 13.2 µM (inactive) | 10.2 µM (inactive)
COc1c(C)c2c(c(=O)c3c(C)cccc3n2C)c2c1c(=O)c1c(C)cccc1n2C | > 10 µM (inactive) | > 10 µM (inactive) | > 10 µM (inactive) | > 10 µM (inactive) | > 10 µM (inactive) | > 10 µM (inactive) | > 10 µM (inactive) | > 10 | > 10 µM (inactive) | > 10 µM (inactive) | > 10 µM (inactive) | > 10 µM (inactive) | > 10 µM (inactive) | > 10 µM (inactive) | > 10 µM (inactive) | > 10 µM (inactive) | – | > 10 µM (inactive) | > 10 µM (inactive) | > 10 µM (inactive)
Cc1cc(S(=O)(=O)NC2=Nc3cccc(F)c3CN2)c(S)cc1Cl | 47.5 µM (inactive) | > 100 µM (inactive) | 35.2 µM (inactive) | 66.4 µM (inactive) | 57.4 µM (inactive) | > 100 µM (inactive) | 38.7 µM (inactive) | 69.5 | 45.7 µM (inactive) | 40 µM (inactive) | 68.9 µM (inactive) | – | 84.1 µM (inactive) | – | > 100 µM (inactive) | 48.5 µM (inactive) | 53.6 µM (inactive) | > 100 µM (inactive) | > 100 µM (inactive) | 87.5 µM (inactive)
COC(=O)Nc1nc2cc(S(=O)(=O)n3nnc4ccccc43)ccc2[nH]1 | 40.2 µM (inactive) | 57 µM (inactive) | > 100 µM (inactive) | 59.4 µM (inactive) | > 100 µM (inactive) | > 100 µM (inactive) | 53.8 µM (inactive) | > 100 | > 100 µM (inactive) | > 100 µM (inactive) | > 100 µM (inactive) | 41.7 µM (inactive) | 10.2 µM (inactive) | 17.1 µM (inactive) | 6.62 µM (inactive) | 75.2 µM (inactive) | > 100 µM (inactive) | – | 5.61 µM (inactive) | > 100 µM (inactive)
Cc1cc(S(=O)(=O)NC2=NNC(C)CN2)c(S)cc1Cl (stereo not drawn) | 35 µM (inactive) | 21.6 µM (inactive) | 37.9 µM (inactive) | 46.1 µM (inactive) | 36.9 µM (inactive) | > 100 µM (inactive) | 38.4 µM (inactive) | 32.1 | 61.8 µM (inactive) | 27.7 µM (inactive) | 32.2 µM (inactive) | 48.6 µM (inactive) | 43.9 µM (inactive) | > 100 µM (inactive) | 93.5 µM (inactive) | 37.2 µM (inactive) | 32.3 µM (inactive) | > 100 µM (inactive) | > 100 µM (inactive) | 51.5 µM (inactive)
O=C(Nc1ccccc1C(=O)O)C(=Cc1ccccc1O)NC(=O)c1ccccc1 | > 100 µM (inactive) | > 100 µM (inactive) | > 100 µM (inactive) | > 100 µM (inactive) | > 100 µM (inactive) | > 100 µM (inactive) | > 100 µM (inactive) | > 100 | > 100 µM (inactive) | > 100 µM (inactive) | 32.4 µM (inactive) | > 100 µM (inactive) | 58.6 µM (inactive) | > 100 µM (inactive) | > 100 µM (inactive) | > 100 µM (inactive) | > 100 µM (inactive) | – | > 100 µM (inactive) | > 100 µM (inactive)
COc1ccc(C(=O)/C=C/c2ccncc2)cc1OC | 11.4 µM (inactive) | 17.1 µM (inactive) | 15.7 µM (inactive) | 14.9 µM (inactive) | 4.02 µM (inactive) | 15.5 µM (inactive) | 6.44 µM (inactive) | 15.4 | – | 14.7 µM (inactive) | 14.8 µM (inactive) | 10.7 µM (inactive) | 10.3 µM (inactive) | 17.2 µM (inactive) | 13.5 µM (inactive) | 6.49 µM (inactive) | – | 16.4 µM (inactive) | 12.9 µM (inactive) | 14.9 µM (inactive)
CCOC(=O)c1ccc(NCc2ccc3nc(OC)c(OC)nc3c2)cc1 | 94.8 µM (inactive) | > 100 µM (inactive) | > 100 µM (inactive) | > 100 µM (inactive) | > 100 µM (inactive) | > 100 µM (inactive) | 92.3 µM (inactive) | > 100 | > 100 µM (inactive) | > 100 µM (inactive) | > 100 µM (inactive) | > 100 µM (inactive) | > 100 µM (inactive) | > 100 µM (inactive) | 33.7 µM (inactive) | > 100 µM (inactive) | > 100 µM (inactive) | – | > 100 µM (inactive) | > 100 µM (inactive)
COC(OC)C1(c2ccccc2)Oc2ccccc2C1=O (stereo not drawn) | > 100 µM (inactive) | > 100 µM (inactive) | > 100 µM (inactive) | > 100 µM (inactive) | > 100 µM (inactive) | > 100 µM (inactive) | > 100 µM (inactive) | > 100 | > 100 µM (inactive) | > 100 µM (inactive) | > 100 µM (inactive) | 50.1 µM (inactive) | > 100 µM (inactive) | > 100 µM (inactive) | > 100 µM (inactive) | > 100 µM (inactive) | > 100 µM (inactive) | > 100 µM (inactive) | > 100 µM (inactive) | –
Cc1cc(C#N)c(Nc2c(C)cccc2[N+](=O)[O-])s1 | 26.9 µM (inactive) | 66.7 µM (inactive) | 46.3 µM (inactive) | 49.7 µM (inactive) | 16.6 µM (inactive) | > 100 µM (inactive) | 73.8 µM (inactive) | 50 | > 100 µM (inactive) | > 100 µM (inactive) | 61 µM (inactive) | 39.7 µM (inactive) | 43.2 µM (inactive) | 35.4 µM (inactive) | 21.5 µM (inactive) | 49.7 µM (inactive) | > 100 µM (inactive) | – | 39.3 µM (inactive) | > 100 µM (inactive)
COC(=O)[C@H](CC(C)C)NC1=C(Cl)C(=O)c2c(O)ccc(O)c2C1=O | 6.97 µM (inactive) | > 10 µM (inactive) | 7.24 µM (inactive) | > 10 µM (inactive) | 4.31 µM (inactive) | 4.34 µM (inactive) | 2.46 µM (inactive) | 3.05 | 6.43 µM (inactive) | 3.45 µM (inactive) | 8.89 µM (inactive) | 6.53 µM (inactive) | 9.02 µM (inactive) | > 10 µM (inactive) | > 10 µM (inactive) | > 10 µM (inactive) | 9.64 µM (inactive) | > 10 µM (inactive) | > 10 µM (inactive) | –
COc1cc2c(cc1OC(=O)c1cc3ccccc3[nH]1)N=C[C@@H]1CCCN1C2=O | 0.261 µM (active) | 0.219 µM (active) | 0.662 µM (active) | 0.244 µM (active) | 0.255 µM (active) | 0.202 µM (active) | 0.41 µM (active) | 0.475 | 0.433 µM (active) | 0.18 µM (active) | 0.316 µM (active) | 0.37 µM (active) | 0.281 µM (active) | 1.35 µM (inactive) | 1.41 µM (inactive) | 0.174 µM (active) | 0.325 µM (active) | 0.355 µM (active) | 0.268 µM (active) | 0.129 µM (active)
